These results are taken from the METLIN SMRT retention time set (Domingo-Almenara et al. 2019).

The data set is described as follows: gradient 5% acetonitrile 3 min, to 50% in 2 min, to 85% in 15 min, held 3 min, 100 µL/min. To be noted: column: Zorbax Extend-C18 2.1 x 50 mm; eluents: water / acetonitrile, 0.1% formic acid. In outline: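 Pure standards were analyzed in mixtures of ~100 molecules using HPLC coupled to a quadrupole time-of-flight mass spectrometer, in both positive and negative ionization mode. Separation used a Zorbax Extend-C18 column (2.1 × 50 mm, 1.8 μm) at 100 μL/min, with water and acetonitrile each containing 0.1% formic acid. Dead and dwell volumes were 40 μL and 900 μL, and data were collected over 3 months. Retention time was read from computationally picked adduct peaks, each inspected manually.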
As for `COc1cccc(S(=O)(=O)N2C[C@@H]3C[C@H]2C[C@@H]3NC(=O)c2cccnc2)c1`, the RP-LC retention time is 676 s.

For the molecule `CCc1nnc(-c2cc(S(=O)(=O)NCCCc3ccccc3)cn2C)o1`, the RP-LC retention time came to 864 s. The same measure for `CC(C)Cc1ccc(S(=O)(=O)N2CCc3c(c(CN4CCN(C)CC4)nn3C)C2)cc1`: 687 s; for `Cc1cc(C)c(C)c(S(=O)(=O)N2CCC(OCc3noc(C4CCCO4)n3)CC2)c1C` (centres undefined): 1110 s; for `Cn1nc(-c2nc(Cc3ccccc3)no2)c2c1CCN(C(=O)NC1CCCCC1)C2`: 933 s. To `Cc1ccc(CNC(=O)C2(C)CCCN(C(=O)Nc3cccc(Cl)c3)C2)cc1` (centres undefined) belongs 1040 s. Turning to `CC1CCc2onc(C(=O)N3CCN(Cc4ccc5c(c4)OCO5)CC3)c2C1` (centres undefined), the RP-LC retention time amounted to 667 s. To `COC(=O)c1ccc(CN2N=C(C(=O)N3CCC(C)CC3)S(=O)(=O)c3ccccc32)o1` belongs 891 s. The same measure for `CCc1nncn1C1CCN(S(=O)(=O)c2ccc(C)cc2C)CC1`: 738 s; for `CC(C)NC(=O)c1ccc2c(c1)Sc1ncccc1C(=O)N2C(C)C`: 736 s; for `CC(C)n1c(N2CCN(C(=O)c3ccncc3)CC2)cc(=O)n(C(C)C)c1=O`: 601 s. The same measure for `Cc1cc(C)cc(S(=O)(=O)N2CCC(n3cnc4ccc(C)cc4c3=O)CC2)c1`: 1010 s.

Molecule `O=C(C1CCN(c2ncccc2-c2nc(-c3cccc(Cl)c3)no2)CC1)N1CCOCC1` registered an RP-LC retention time of 982 s. To `COc1ccc(-c2oc3c(CC=C(C)C)c(O)cc(O)c3c(=O)c2O)cc1` belongs 1040 s; to `CCNC(=O)N1CCc2c(c(-c3nc(-c4ccccc4)no3)nn2C)C1`, 787 s. To `COc1cccc(Cn2c(=O)c3sccc3n(Cc3nc(-c4cccc(C)c4)no3)c2=O)c1` belongs 1160 s.

In turn, `CCS(=O)(=O)N1CCC(Cc2ccc(CN3CCOCC3)cc2)CC1` came in with an RP-LC retention time of 622 s. The same measure for `CCOC(=O)c1c(C)[nH]c(CCC(=O)NC2CCCC2)c1C`: 780 s; for `CCOc1ccc(C2Cn3nnc(-c4nc(-c5ccc(C(F)(F)F)cc5)no4)c3CO2)cc1` (centres undefined): 1340 s; for `CCn1nnc2ccc(-c3noc(Cc4ccccc4C)n3)cc21`: 1030 s. The same measure for `CSc1nc(N2CCCC2)c2cnn(CCNC(=O)c3ccc(=O)[nH]c3)c2n1`: 593 s; for `CSc1ccc(-c2noc(Cn3c(=O)n(CC(C)C)c(=O)c4ccccc43)n2)cc1`: 1210 s. `Cc1ccc(-c2nc(Cn3cccc3C(=O)NC3CCCC3)no2)cc1` displayed an RP-LC retention time of 1050 s.

Regarding `CC(C)CNC(=O)NCC1Cn2cccc2C(=O)N1Cc1ccccc1` (centres undefined), the RP-LC retention time was 744 s. To `O=C(NCc1cccc(Cl)c1)C1CCN(c2cnc(N3CCCC3)nc2)CC1` belongs 690 s; to `O=c1c(=O)n(-c2ccc(Br)cc2)ccn1Cc1ccncc1`, 554 s; to `Cc1ccc(-c2nnc(Cc3nc(-c4ccc(F)c(F)c4)no3)o2)cc1F`, 1110 s. The same measure for `CCOc1ccc(NS(=O)(=O)c2ccc(-c3c(C)noc3C)cc2)cc1`: 934 s; for `CC1(C(=O)NCc2ccccc2)CCCN(C(=O)Nc2ccc(F)cc2)C1` (centres undefined): 588 s. Take `CCCCS(=O)(=O)N1CC(c2noc(-c3cccnc3)n2)C2(CCOCC2)C1` (centres undefined): the RP-LC retention time turned out to be 788 s. To `O=C(c1ccc(F)cc1)N1CCN(c2ccc(=O)n(-c3cccc(Cl)c3)n2)CC1` belongs 869 s.

As for `Cn1nc(-c2ccccc2)cc1C(=O)N1CCC(C(=O)Nc2nccs2)CC1`, the RP-LC retention time was 712 s.

As to `Cc1ccc(C(=O)N2C[C@@H](C)[C@H](c3nc(C)no3)C2)cn1`, the RP-LC retention time is 593 s. The molecule `O=C(NCc1ccccc1Br)c1cn2nc(Cl)ccc2n1` returned an RP-LC retention time of 894 s. For `CC1=C(C(=O)NCCCOC(C)C)C2(CCN(Cc3ccccc3)CC2)OC1=O`, the RP-LC retention time was 644 s. The same measure for `CCCCN1C(=O)C(C)(C(=O)Nc2ccc(C)cc2C)Oc2cccnc21` (centres undefined): 1090 s. In turn, `Cc1ccc(-c2nc3cnccn3c2NCCC(=O)NCc2ccc(C)o2)cc1` yielded an RP-LC retention time of 710 s. Take `COc1ccc(N2CCN(C(=O)c3cn4nc(Cl)ccc4n3)CC2)cc1`: the RP-LC retention time was determined as 714 s. For the molecule `Cc1ccc(S(=O)(=O)N(C)CC2CCOCC2)c(C)c1`, the RP-LC retention time amounted to 896 s. `Cc1ccc(-c2cc3c(=O)n(CC(O)c4ccc(C)c(C)c4)ccn3n2)c(C)c1` (centres undefined) gave an RP-LC retention time of 1080 s. To `Cc1nnc([C@@H]2CC(F)(F)CN2C(=O)COc2ccc(F)cc2)o1` belongs 736 s; to `CN(C)S(=O)(=O)c1cc(-c2nnc(-c3ccc(F)cc3)o2)ccc1Cl`, 991 s. To `COc1ccc(N2C=C(C(=O)N3CCCC3)S(=O)(=O)c3ccc(F)cc32)cc1OC` belongs 758 s. The same measure for `CN(C)c1ccc(C(=O)N2CCCC2c2nc(-c3ccc(F)cc3F)no2)cc1` (centres undefined): 984 s; for `Cc1ccc(C)c(N2CCN(CC(O)c3ccc4c(c3)OCO4)CC2)c1` (centres undefined): 732 s.

Regarding `CSc1cccc(NC(=O)Cn2cccc2-c2nc(-c3ccc4c(c3)OCO4)no2)c1`, the RP-LC retention time came out at 1110 s.

As to `Cc1cc(C)c(S(=O)(=O)N2CCC(C(=O)NCCc3csc(-c4ccccc4)n3)CC2)cc1C`, the RP-LC retention time stood at 1070 s. `Cc1cccc(Sc2nccnc2N2CCC(C(=O)N3CCCCCC3)CC2)c1` displayed an RP-LC retention time of 1130 s. To `O=c1c2oc3ccccc3c2ncn1Cc1nc(-c2cccc(C(F)(F)F)c2)no1` belongs 1040 s; to `CCC(CO)NCc1ccc(-c2cccc(Cl)c2)o1` (centres undefined), 658 s; to `Cc1ccc(Cl)cc1NC(=O)CSc1ccc(N2CCCC(C(=O)NC3CC3)C2)nn1` (centres undefined), 698 s. Turning to `CC1CCN(C(=O)CN2C(=O)C3CCCCN3c3ccc(S(=O)(=O)N4CCCC4)cc32)CC1` (centres undefined), the RP-LC retention time was found to be 937 s. In the case of `O=C(c1nnc(-c2csc(S(=O)(=O)N3CCN(c4ncccn4)CC3)c2)o1)N1CCCC1`, the RP-LC retention time amounted to 913 s. The same measure for `O=C(Nc1nccn(-c2ccc3c(c2)CCC3)c1=O)c1ccc(Cl)cc1`: 962 s.

As to `NC(=O)C1=C(N)c2ccccc2C1c1ccccc1` (centres undefined), the RP-LC retention time amounted to 822 s. To `CC(C)NC(=O)c1cc2cc(Br)ccc2[nH]1` belongs 879 s; to `Cc1oc(-c2ccc(OC(C)C)cc2)nc1CSc1nc2ncccc2o1`, 1100 s; to `Cc1cnc(C(=O)N2CC(n3cc(COc4ccncc4)nn3)C2)cn1`, 553 s.

`COCCCNC(=O)c1ncoc1-c1ccccc1C(=O)N1CCCC1` gave an RP-LC retention time of 645 s.

As to `COC(=O)c1cc2c(cc1NC(=O)C1CCCN(c3ncnc4c3nc3n4CCCCC3)C1)OCO2` (centres undefined), the RP-LC retention time turned out to be 943 s. The same measure for `COc1ccc(C(O)Cn2ccn3nc(-c4cc(C)ccc4C)cc3c2=O)cc1` (centres undefined): 949 s. The same measure for `CCc1ccc(S(=O)(=O)Nc2cccc(-c3nc4cccnc4s3)c2C)s1`: 942 s; for `C=C1C(=O)OC2CC1C(OC(C)=O)C/C(C)=C/CC/C(C)=C\CCC2(C)O` (centres undefined): 917 s. `N#Cc1ccccc1NC(=O)Cc1ccc2c(c1)OCO2` registered an RP-LC retention time of 710 s. To `c1cc2c(cc1-c1nnc(C3CCCC3)o1)OCO2` belongs 944 s.

In the case of `Cc1nc(OCC(=O)NCc2ccccc2)c2ccccc2n1`, the RP-LC retention time was determined as 621 s. To `Cc1ccc(Nc2c(-c3ccc(N(C)C)cc3)nc3c(C)cccn23)cc1` belongs 805 s; to `Cc1cc2c3ccccc3ncn2n1`, 855 s; to `O=C(c1cc(F)ccc1F)N1CCC(OCC2CC2)C1` (centres undefined), 772 s. To `Cc1ccc(C)c(S(=O)(=O)N2CCC(c3nc(C(=O)N4CCOCC4)c(C)o3)CC2)c1` belongs 891 s; to `COc1cc(-c2noc(C3CC(=O)N(c4ccc(C)c(C)c4)C3)n2)cc(OC)c1OC` (centres undefined), 990 s. The same measure for `Cc1cc(-c2nnc(-c3ccc(F)cc3)o2)c(C)n1CC(=O)NCc1ccc(F)cc1`: 945 s; for `COc1nccc(N2CCC(CC(=O)NCc3ccc(OC)c(OC)c3)CC2)n1`: 575 s; for `COc1cccc(CC(=O)N2CCC3(CC2)NC(=O)c2ccc(F)cc2N3C)c1`: 756 s. As to `CC(C)S(=O)(=O)N[C@H]1CCOC[C@@H]1c1ccc(-c2ccc(C#N)s2)cc1`, the RP-LC retention time came to 958 s. The same measure for `O=C(O)CNS(=O)(=O)c1ccc(Cl)c(-c2nnc(-c3ccccc3)o2)c1`: 766 s; for `Cc1cc(N2CCOCC2)n2nc(CN3CCN(c4cc(Cl)ccc4C)CC3)nc2n1`: 668 s; for `NC(=O)c1ccc2c(c1)n(Cc1ccccc1)c(=O)c1ccnn12`: 674 s. The same measure for `COc1ccc(-c2nc3n(n2)C2(CCCCC2)[C@@H]2CCCC[C@@H]2N3C(=O)c2ccco2)cc1`: 1380 s.
